Literature values in US9629386B2, “Nutrition composition” (AJINOMOTO CO., INC., priority 2008, dated 2017).

Test system: CRP and nutrition condition
Details: 1.2 g to 11 dialysis patients for 12 weeks

ω-3 fatty acid
CRP: did not decrease CRP | nutrition condition: did not improve nutrition condition
